Test results as given in US11214803B2, “Modulators of YAP1 expression” (Ionis Pharmaceuticals, Inc., priority 2019, dated 2022).
Strand notation (5' to 3'): a small letter for the sugar, then the base; units joined by * are phosphorothioate-linked, units joined directly phosphodiester-linked; [ ] holds rarer units or linkages, { } end groups; capitals alone tell only the bases. k = constrained ethyl (cEt); [5mC] = 5-methylcytosine; d = 2'-deoxy (DNA)

Columns and labels:
Yap1 mRNA [1] = assay: Antisense inhibition of human Yap1 in A-431 cells by cEt gapmers, single dose (Example 3, RTS36584); type: cell-based
In short: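 Human epidermoid A-431 cells take up gapmer (2,000 nM, free uptake, ~48 h); Yap1 transcript is then assayed by qRT-PCR with RiboGreen normalization and reported relative to untreated cells. Gapmers carry cEt-modified wings, phosphorothioate linkages and 5-methylcytosine throughout.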

Yap1 mRNA [2] = assay: Dose-dependent inhibition of human Yap1 in A-431 cells (Example 8, 10,000 cells per well, RTS4814); type: cell-based; details: for Yap1 mRNA, % UTC: A-431 cells, 10,000 cells per well; for IC50 / % UTC (Yap1 mRNA): A-431 cells
In short: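 A-431 cells (10,000/well) dosed with modified oligonucleotides by free uptake; Yap1 mRNA measured ~48 h later with primer-probe set RTS4814, normalized to total RNA (RIBOGREEN). Values are % of untreated control; IC50 from linear regression on log/linear plot.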

[3] = Table 28, Yap1 mRNA as percent of untreated control, 3-10-3 cEt gapmers targeting SEQ ID NO.: 1, and 2
[4] = 31.3 nM, free uptake, approximately 48 hours, RTS4814
[5] = 125.0 nM, free uptake, approximately 48 hours, RTS4814
[6] = 500.0 nM, free uptake, approximately 48 hours, RTS4814
[7] = 2000.00 nM, free uptake, approximately 48 hours, RTS4814
[8] = free uptake, approximately 48 hours, RTS4814, linear regression on log/linear plot
[9] = Table 26, Yap1 mRNA by 3-10-3 cEt gapmers targeting SEQ ID NO.: 1, and 2, percent of untreated control
[10] = Table 34, Yap1 mRNA as percent of untreated control, 3-10-3 cEt gapmers targeting SEQ ID NO: 1 and 2, single dose
[11] = Table 35, Yap1 mRNA as percent of untreated control, 3-10-3 cEt gapmers targeting SEQ ID NO: 1 and 2, single dose
[12] = Table 27, Yap1 mRNA by 3-10-3 cEt gapmers targeting SEQ ID NO.: 1, and 2, percent of untreated control
[13] = Table 29, Yap1 mRNA as percent of untreated control, 3-10-3 cEt gapmers targeting SEQ ID NO.: 1, and 2
[14] = Table 10, A-431 cells, 5,000 cells per well, free uptake, 2,000 nM oligonucleotide, approx. 48 hours, primer probe set RTS36584, Yap1 mRNA normalized to RIBOGREEN, percent of untreated control

Row | Substance | Yap1 mRNA, % UTC (Yap1 mRNA [2]; [4]) [% UTC] | Yap1 mRNA, % UTC (Yap1 mRNA [2]; [5]) [% UTC] | Yap1 mRNA, % UTC (Yap1 mRNA [2]; [6]) [% UTC] | Yap1 mRNA, % UTC (Yap1 mRNA [2]; [7]) [% UTC] | IC50 (Yap1 mRNA [2]; [8]) [nM] | other results
1 | 1074414 (kA*kA*k[5mC]*dT*dG*dT*dG*dA*dA*dA*dG*dA*dG*kG*kT*k[5mC]; antisense) [compound 1074414] | 64 | 34 | 14 | 7 | 100 | YAP1 (% UTC) (Yap1 mRNA [1]; [3]): 6 % UTC
2 | 1076460 (kT*kA*kA*dT*dA*dT*dA*dG*d[5mC]*d[5mC]*d[5mC]*d[5mC]*dT*kT*k[5mC]*kA; antisense) [compound 1076460] | 79 | 53 | 25 | 12 | 200 | YAP1 (% UTC) (Yap1 mRNA [1]; [9]): 7 % UTC
3 | 1074676 (antisense k[5mC]*kA*kA*dA*dT*dT*dA*dT*dA*dG*dG*d[5mC]*dA*k[5mC]*kT*k[5mC]) [compound 1074676] | – | – | – | – | – | YAP1 (% UTC) (Yap1 mRNA [1]; [10]): 4 % UTC; % UTC (Yap1 mRNA) (Yap1 mRNA [2]; 31.3 nM): 54 % UTC; % UTC (Yap1 mRNA) (Yap1 mRNA [2]; 125.0 nM): 16 % UTC; % UTC (Yap1 mRNA) (Yap1 mRNA [2]; 500.0 nM): 6 % UTC; % UTC (Yap1 mRNA) (Yap1 mRNA [2]; 2000.00 nM): 5 % UTC; IC50 (Yap1 mRNA [2]; Yap1 mRNA): < 20 nM
4 | 1074606 (DNA kG*kG*kT*dA*dT*dA*dA*dT*d[5mC]*dA*dT*dG*dA*kT*kT*kA) [compound 1074606] | 31 | 10 | 6 | 4 | < 20 | YAP1 (% UTC) (Yap1 mRNA [1]; [3]): 4 % UTC
5 | 1075084 (antisense kT*kG*kA*d[5mC]*dA*dA*d[5mC]*dA*dA*d[5mC]*dA*d[5mC]*dT*k[5mC]*k[5mC]*kT) [compound 1075084] | 103 | 72 | 37 | 14 | 300 | YAP1 (% UTC) (Yap1 mRNA [1]; [9]): 9 % UTC
6 | 1076526 (kG*kT*kA*dG*dA*dA*dA*dG*dA*dT*dG*dG*d[5mC]*kT*k[5mC]*kA; antisense) [compound 1076526] | 44 | 9 | 3 | 2 | < 20 | YAP1 (% UTC) (Yap1 mRNA [1]; [3]): 3 % UTC
7 | 1075061 (antisense k[5mC]*k[5mC]*kT*dT*dA*dT*dA*d[5mC]*dT*dT*dT*dT*dA*kG*k[5mC]*k[5mC]) [compound 1075061] | – | – | – | – | – | YAP1 (% UTC) (Yap1 mRNA [1]; [11]): 5 % UTC; % UTC (Yap1 mRNA) (Yap1 mRNA [2]; 31.3 nM): 58 % UTC; % UTC (Yap1 mRNA) (Yap1 mRNA [2]; 125.0 nM): 23 % UTC; % UTC (Yap1 mRNA) (Yap1 mRNA [2]; 500.0 nM): 9 % UTC; % UTC (Yap1 mRNA) (Yap1 mRNA [2]; 2000.00 nM): 6 % UTC; IC50 (Yap1 mRNA [2]; Yap1 mRNA): < 20 nM
8 | 1076085 (kA*k[5mC]*kT*dA*dA*dT*dA*dG*dG*d[5mC]*d[5mC]*dA*dT*k[5mC]*kT*kG; antisense) [compound 1076085] | – | – | – | – | – | YAP1 (% UTC) (Yap1 mRNA [1]; [11]): 7 % UTC; % UTC (Yap1 mRNA) (Yap1 mRNA [2]; 31.3 nM): 70 % UTC; % UTC (Yap1 mRNA) (Yap1 mRNA [2]; 125.0 nM): 34 % UTC; % UTC (Yap1 mRNA) (Yap1 mRNA [2]; 500.0 nM): 14 % UTC; % UTC (Yap1 mRNA) (Yap1 mRNA [2]; 2000.00 nM): 9 % UTC; IC50 (Yap1 mRNA [2]; Yap1 mRNA): 100 nM
9 | 1075757 (k[5mC]*kT*kT*dA*dA*dT*dA*d[5mC]*dA*dT*dT*dA*dT*kT*k[5mC]*k[5mC]; antisense) [compound 1075757] | 43 | 14 | 5 | 2 | < 20 | YAP1 (% UTC) (Yap1 mRNA [1]; [12]): 2 % UTC
10 | 1074580 (DNA kA*k[5mC]*k[5mC]*dA*d[5mC]*dT*dA*dT*dA*dA*dA*dG*d[5mC]*kT*kT*kA; further chemistry not given here) [compound 1074580] | – | – | – | – | – | YAP1 (% UTC) (Yap1 mRNA [1]; [10]): 5 % UTC; % UTC (Yap1 mRNA) (Yap1 mRNA [2]; 31.3 nM): 55 % UTC; % UTC (Yap1 mRNA) (Yap1 mRNA [2]; 125.0 nM): 18 % UTC; % UTC (Yap1 mRNA) (Yap1 mRNA [2]; 500.0 nM): 8 % UTC; % UTC (Yap1 mRNA) (Yap1 mRNA [2]; 2000.00 nM): 5 % UTC; IC50 (Yap1 mRNA [2]; Yap1 mRNA): < 20 nM
11 | 1074639 (antisense kT*kA*kG*dA*dT*dT*dT*dT*dG*dT*dA*dA*dT*kT*kG*kG) [compound 1074639] | 46 | 18 | 7 | 5 | < 20 | YAP1 (% UTC) (Yap1 mRNA [1]; [13]): 3 % UTC
12 | 1074479 (k[5mC]*kA*kT*dT*dT*dG*d[5mC]*d[5mC]*dT*dA*dG*dG*dT*kT*k[5mC]*k[5mC]; antisense) [compound 1074479] | 23 | 8 | 4 | 4 | < 20 | YAP1 (% UTC) (Yap1 mRNA [1]; [13]): 2 % UTC
13 | 1074413 (kA*k[5mC]*kT*dG*dT*dG*dA*dA*dA*dG*dA*dG*dG*kT*k[5mC]*kA; antisense) [compound 1074413] | 50 | 19 | 6 | 3 | < 20 | YAP1 (% UTC) (Yap1 mRNA [1]; [12]): 4 % UTC
14 | 1075055 (antisense k[5mC]*kT*kA*dT*dT*dA*dA*dG*dT*dG*dA*dG*d[5mC]*kT*kT*kT) [compound 1075055] | 60 | 20 | 6 | 4 | 30 | YAP1 (% UTC) (Yap1 mRNA [1]; [13]): 4 % UTC
15 | 1074613 (DNA k[5mC]*kA*kT*dA*dG*d[5mC]*dT*dT*dA*dT*dA*dT*dT*kG*kA*kA; antisense) [compound 1074613] | – | – | – | – | – | YAP1 (% UTC) (Yap1 mRNA [1]; [11]): 7 % UTC; % UTC (Yap1 mRNA) (Yap1 mRNA [2]; 31.3 nM): 63 % UTC; % UTC (Yap1 mRNA) (Yap1 mRNA [2]; 125.0 nM): 23 % UTC; % UTC (Yap1 mRNA) (Yap1 mRNA [2]; 500.0 nM): 9 % UTC; % UTC (Yap1 mRNA) (Yap1 mRNA [2]; 2000.00 nM): 6 % UTC; IC50 (Yap1 mRNA [2]; Yap1 mRNA): 40 nM
16 | 1074607 (DNA kA*kA*kG*dG*dT*dA*dT*dA*dA*dT*d[5mC]*dA*dT*kG*kA*kT) [compound 1074607] | 45 | 22 | 10 | 5 | < 20 | YAP1 (% UTC) (Yap1 mRNA [1]; [13]): 4 % UTC
17 | 1076399 (antisense kG*kA*kT*dA*dA*d[5mC]*dT*dT*dA*dG*dA*dG*dA*kT*kG*kT) [compound 1076399] | 60 | 29 | 11 | 6 | 40 | YAP1 (% UTC) (Yap1 mRNA [1]; [13]): 4 % UTC
18 | 1075246 (kG*kA*kT*dA*dA*d[5mC]*dT*dA*dG*dT*dA*dA*d[5mC]*k[5mC]*kG*kT; antisense) [compound 1075246] | 70 | 34 | 12 | 6 | 100 | YAP1 (% UTC) (Yap1 mRNA [1]; [3]): 6 % UTC
19 | 1076525 (kG*kA*kA*dT*dT*dT*dA*dT*dA*dT*d[5mC]*dA*dG*kG*kT*k[5mC]; antisense) [compound 1076525] | 43 | 14 | 5 | 2 | < 20 | YAP1 (% UTC) (Yap1 mRNA [1]; [12]): 3 % UTC
20 | 1074485 (kT*kT*k[5mC]*dA*d[5mC]*dT*dA*dA*dT*dA*dT*dG*dG*kT*k[5mC]*kA; antisense) [compound 1074485] | – | – | – | – | – | YAP1 (% UTC) (Yap1 mRNA [1]; [11]): 4 % UTC; % UTC (Yap1 mRNA) (Yap1 mRNA [2]; 31.3 nM): 47 % UTC; % UTC (Yap1 mRNA) (Yap1 mRNA [2]; 125.0 nM): 14 % UTC; % UTC (Yap1 mRNA) (Yap1 mRNA [2]; 500.0 nM): 5 % UTC; % UTC (Yap1 mRNA) (Yap1 mRNA [2]; 2000.00 nM): 3 % UTC; IC50 (Yap1 mRNA [2]; Yap1 mRNA): < 20 nM
21 | 1074477 (kG*kT*kT*d[5mC]*d[5mC]*dG*dA*d[5mC]*dA*dA*dA*dA*d[5mC]*k[5mC]*kA*kA; antisense) [compound 1074477] | 77 | 48 | 20 | 12 | 100 | YAP1 (% UTC) (Yap1 mRNA [1]; [12]): 10 % UTC
22 | 1076565 (k[5mC]*kA*kT*dT*dA*dA*dG*dT*d[5mC]*dA*d[5mC]*dA*dG*k[5mC]*kA*kT; antisense) [compound 1076565] | – | – | – | – | – | YAP1 (% UTC) (Yap1 mRNA [1]; [11]): 74 % UTC
23 | 958575 (kG*kG*k[5mC]*dT*dA*d[5mC]*dT*dG*dG*d[5mC]*dA*dA*dA*kT*kT*kA; antisense) [Compound 958575] | – | – | – | – | – | YAP1 (% UTC) (Yap1 mRNA [1]; Table 13, A-431 cells, 5,000 cells per well, free uptake, 2,000 nM modified oligonucleotide, approx. 48 hours, RTS36584, normalized to RIBOGREEN, Yap1 mRNA relative to untreated control cells): 9 % UTC
24 | 958627 (antisense kT*kT*kG*dG*dG*d[5mC]*dA*dA*dA*dG*dT*dT*d[5mC]*k[5mC]*kT*kA) [Compound 958627] | – | – | – | – | – | YAP1 (% UTC) (Yap1 mRNA [1]; [14]): 61 % UTC
25 | 958472 (antisense kT*k[5mC]*k[5mC]*dT*dT*dA*dG*dA*dT*d[5mC]*d[5mC]*dT*dT*k[5mC]*kA*k[5mC]) [Compound 958472] | – | – | – | – | – | YAP1 (% UTC) (Yap1 mRNA [1]; [14]): 5 % UTC
